Values after ≈ are worked out from the molar mass of the structure shown.
System: Streptococcus mutans
Assay: Antimicrobial activity against Streptococcus mutans MT509
Assay type: functional

Row | MIC [µg/mL] | Structure (SMILES)
1 | 3.13 (≈ 12.9 µM) | CC(C)CCCCCCCCCCCC(=O)O
2 | 3.13 (≈ 12.9 µM) | CCC(C)CCCCCCCCCCC(=O)O (configuration not stated)

From ChEMBL document CHEMBL1154580, “Identification and total synthesis of a novel dimethylated fatty acid from the Caribbean sponge Calyx podatypa” (2000)
